Measurements published in US6310091A, “Fungicidal saponin, CAY-1, and isolation thereof from Capsium species fruit” (The United States of America as represented by the …, priority 2000, dated 2001).
Where “and” joins values, the source holds several entries; their conditions need not be identical. Equal values may be shown once. Read-outs that look alike come from different tables or passages of the source.

Assays:
Aspergillus niger = experiment: Fungicidal bioassay on nongerminated and germinating conidia of A. niger; type: cell-based; details: for activity at 5 µM / activity at 10 µM / activity at 15 µM / activity at 20 µM / activity at 1 µM / activity at 2.5 µM: read-out: Percent of Mean Control
Description: (§1) 1. Filamentous fungi. Filamentous fungi used in bioassays included Aspergillus flavus, A. fumigatus, A. niger, A. parasiticus and Fusarium oxysporum. The fungicidal properties of CAY-1 for the nongerminated and germinating conidia of these fungi were determined separately as described by De Lucca et al. [Med. Mycol., 36:291-298 (1998)] and De Lucca et al. [Antimicrob. Agents Chemother. 43:371-373 (1999)]. […] Two separate experiments were conducted in each medium (n=8 per medium).
(§2) A suspension of the aforementioned fungi were prepared separately in the appropriate medium. Conidia (10^4 conidia/ml) were used immediately for the nongerminated conidial assays while conidia (10^5 conidia/ml) were incubated for 7.5 hours at 30° C. to obtain germinating conidia. Serial dilutions of CAY-1 were prepared in the appropriate medium (totaling 225 μl) to which was added 25 μl of the conidial suspensions. The control consisted of 225 μl of medium and 25 μl of the conidial suspension. After mixing, the samples were incubated for 30 min (30° C.). Samples were then spread on potato dextrose agar plates which were incubated at 30° C. for 24 hours. Colonies were then enumerated.
(§3) Statistical analyses. ANOVA analyses on ranks for nonparametric data were performed for the bioassays described in this example.

Fusarium oxysporum = experiment: Fungicidal bioassay on nongerminated and germinating conidia of F. oxysporum; type: cell-based
Description: as §1, §2, §3

[1] = tested on: Bacillus subtilis ATCC 6051; experiment: Bacterial lethality; type: cell-based; details: 0.5-10 μM; 37° C., 24 hrs
Description: (§4) 5. Bacteria. CAY-1 lethality to Escherichia coli ATCC 8739, Enterobacter agglomerans ATCC 27996, Bacillus subtilis ATCC 6051 and Staphylococcus aureus ATCC 12600 was determined by methods described earlier (De Lucca et al., Mol. cell Biochem., 1995, 151:141-148). Briefly, 24 hr bacterial cultures were washed and resuspended in 0.1 M PBS, pH 7.2, amended with 0.15 mM MgCl2 and 0.5 mM CaCl2 and adjusted to 80% transmittance (approximately 10^8 cells/ml) at 590 nm. Bacterial suspensions were mixed with PBS and CAY-1 (final concentrations: 0, 0.5, 1, 2, 4, 8, 10 μM) in sterile 96-well plates (Nunc, Roskilde, Denmark) and incubated (37° C., 24 hrs). Bioassays were performed twice for each bacteria (n=8).

[2] = tested on: Enterobacter agglomerans ATCC 27996; experiment: Bacterial lethality; type: cell-based; details: 0.5-10 μM; 37° C., 24 hrs
Description: as §4

[3] = tested on: Escherichia coli ATCC 8739; experiment: Bacterial lethality; type: cell-based; details: 0.5-10 μM; 37° C., 24 hrs
Description: as §4

[4] = tested on: Staphylococcus aureus ATCC 12600; experiment: Bacterial lethality; type: cell-based; details: 0.5-10 μM; 37° C., 24 hrs
Description: as §4

[5] = Mammalian cytotoxicity, HeLa cells (neutral red); type: cell-based, Human; details: human, hela cells
Description: (§5) 1. HeLa cells. Human epitheloid cervical carcinoma cells (ATCC2.2CCL) were grown in MEM media (Mediatech), supplemented with fetal bovine sera and penicillin (De Lucca et al., Antimicrob. Agents Chemother., 1999, 43:371-373). The cells were rinsed with PBS and harvested using trypsin. Cell count was determined manually using trypan blue and cells were diluted to a final concentration of 2.5×10^5 […]. Aliquots of 100 μl were dispensed per well into a 96-well plate. Cells were incubated overnight (18-24 hours) at 37° C. in a humidified 5% (v/v) CO2 environment. Neutral red dye solution was then added to each well culture and re-incubated for 3 hours. Two-fold serial dilutions of CAY-1 were prepared and aliquoted to final concentrations of 5, 10, 20, 30, and 60 μM (6, 12, 25, 37 and 74 μg/ml, respectively). Negative controls without CAY-1 were included. Cells were exposed to the saponin for 1 hour. Supernatants from each well were transferred into another 96-well plate. The remaining cells were lysed using a 2% Triton solution. Glacial acetic acid was then added to supernatants and lysates, and absorbance was read at A540.

HeLa cells = experiment: Mammalian cytotoxicity, HeLa cells (neutral red); type: cell-based, Human; details: at concentrations effective against the fungi and yeast
Description: as §5

`CC1CCC2(OC1)OC1CC3C4CCC5CC(OC6OC(CO)C(OC7OC(CO)C(O)C(OC8OC(CO)C(O)C(OC9OC(CO)C(O)C(O)C9O)C8O)C7OC7OC(CO)C(O)C(O)C7O)C(O)C6O)C(O)CC5(C)C4CCC3(C)C1C2C` (centres unmarked) [CAY-1] showed an activity at 5 µM (Aspergillus niger; Aspergillus niger, 0.5 h, germinated, RPMI-1640, 5.0 μM) of 94.9%, an activity at 10 µM (Aspergillus niger; Aspergillus niger, 0.5 h, germinated, RPMI-1640, 10.0 μM) of 86.2% and an activity at 15 µM (Aspergillus niger; Aspergillus niger, 0.5 h, germinated, RPMI-1640, 15.0 μM) of 93.9%. It also gave an activity at 20 µM (Aspergillus niger; Aspergillus niger, 0.5 h, germinated, RPMI-1640, 20.0 μM) of 85.4%, an activity at 1 µM (Aspergillus niger; Aspergillus niger, 0.5 h, germinating, 1% PDB, 1.0 μM) of 118% and an activity at 2.5 µM (Aspergillus niger; Aspergillus niger, 0.5 h, germinating, 1% PDB, 2.5 μM) of 89.8%. It also gave an activity at 5 µM (Aspergillus niger; Aspergillus niger, 0.5 h, germinating, 1% PDB, 5.0 μM) of 18.2%, an activity at 10 µM (Aspergillus niger; Aspergillus niger, 0.5 h, germinating, 1% PDB, 10.0 μM) of 12% and an activity at 15 µM (Aspergillus niger; Aspergillus niger, 0.5 h, germinating, 1% PDB, 15.0 μM) of 5.7%. For the same molecule, the activity at 20 µM (Aspergillus niger; Aspergillus niger, 0.5 h, germinating, 1% PDB, 20.0 μM) was 3.9%, the activity at 1 µM (Aspergillus niger; Aspergillus niger, 0.5 h, nongerminated, 1% PDB, 1.0 μM) was 102% and the activity at 2.5 µM (Aspergillus niger; Aspergillus niger, 0.5 h, nongerminated, 1% PDB, 2.5 μM) was 96.6%. It also gave an activity at 5 µM (Aspergillus niger; Aspergillus niger, 0.5 h, nongerminated, 1% PDB, 5.0 μM) of 118%, an activity at 10 µM (Aspergillus niger; Aspergillus niger, 0.5 h, nongerminated, 1% PDB, 10.0 μM) of 92.7% and an activity at 15 µM (Aspergillus niger; Aspergillus niger, 0.5 h, nongerminated, 1% PDB, 15.0 μM) of 116%. It also gave an activity at 20 µM (Aspergillus niger; Aspergillus niger, 0.5 h, nongerminated, 1% PDB, 20.0 μM) of 64.4%, an activity at 5 µM (Aspergillus niger; Aspergillus niger, 0.5 h, nongerminated, RPMI-1640, 5.0 μM) of 76.8% and an activity at 10 µM (Aspergillus niger; Aspergillus niger, 0.5 h, nongerminated, RPMI-1640, 10.0 μM) of 87.7%. The activity at 15 µM (Aspergillus niger; Aspergillus niger, 0.5 h, nongerminated, RPMI-1640, 15.0 μM) was 83.8%, the activity at 20 µM (Aspergillus niger; Aspergillus niger, 0.5 h, nongerminated, RPMI-1640, 20.0 μM) was 104% and the IC95 (Aspergillus niger; Aspergillus niger, 0.5 h, read-out: LD95) was 15 µM and 18.6 µg/mL. For the same molecule, the minimal effective concentration (Aspergillus niger; Aspergillus niger, 0.5 h, read-out: concentration achieving significant lethality) was 5 µM and 6.2 µg/mL, the “Mean No. of Colonies” value (Aspergillus niger; germinated, RPMI-1640, 5.0 μM) was 50.1 and the “Mean No. of Colonies” value (Aspergillus niger; germinated, RPMI-1640, 10.0 μM) was 45.5. The “Mean No. of Colonies” value (Aspergillus niger; germinated, RPMI-1640, 15.0 μM) was 49.6, the “Mean No. of Colonies” value (Aspergillus niger; germinated, RPMI-1640, 20.0 μM) was 45.1 and the “lethality to germinating conidia” value (Aspergillus niger; germinating conidia, RPMI-1640) was “no effect was observed”. For the same molecule, the “Mean No. of Colonies” value (Aspergillus niger; germinating, 1% PDB, 1.0 μM) was 60.4, the “Mean No. of Colonies” value (Aspergillus niger; germinating, 1% PDB, 2.5 μM) was 45.8 and the “Mean No. of Colonies” value (Aspergillus niger; germinating, 1% PDB, 5.0 μM) was 9.3. For the same molecule, the “Mean No. of Colonies” value (Aspergillus niger; germinating, 1% PDB, 10.0 μM) was 6.1, the “Mean No. of Colonies” value (Aspergillus niger; germinating, 1% PDB, 15.0 μM) was 2.9 and the “Mean No. of Colonies” value (Aspergillus niger; germinating, 1% PDB, 20.0 μM) was 2.0. The “viability of nongerminated conidia” value (Aspergillus niger; nongerminated conidia, either test medium) was “not affected”, the “Mean No. of Colonies” value (Aspergillus niger; nongerminated, 1% PDB, 1.0 μM) was 36.5 and the “Mean No. of Colonies” value (Aspergillus niger; nongerminated, 1% PDB, 2.5 μM) was 34.5. For the same molecule, the “Mean No. of Colonies” value (Aspergillus niger; nongerminated, 1% PDB, 5.0 μM) was 42.3, the “Mean No. of Colonies” value (Aspergillus niger; nongerminated, 1% PDB, 10.0 μM) was 33.1 and the “Mean No. of Colonies” value (Aspergillus niger; nongerminated, 1% PDB, 15.0 μM) was 41.5. For the same molecule, the “Mean No. of Colonies” value (Aspergillus niger; nongerminated, 1% PDB, 20.0 μM) was 23.0, the “Mean No. of Colonies” value (Aspergillus niger; nongerminated, RPMI-1640, 5.0 μM) was 37.5 and the “Mean No. of Colonies” value (Aspergillus niger; nongerminated, RPMI-1640, 10.0 μM) was 42.8. For the same molecule, the “Mean No. of Colonies” value (Aspergillus niger; nongerminated, RPMI-1640, 15.0 μM) was 40.9, the “Mean No. of Colonies” value (Aspergillus niger; nongerminated, RPMI-1640, 20.0 μM) was 51.0 and the activity against conidia (Fusarium oxysporum) was “not active”. The lethality to bacteria [1] was “not effective”, the lethality to bacteria [2] was “not effective” and the lethality to bacteria [3] was “not effective”. For the same molecule, the lethality to bacteria [4] was “not effective”, the MCC at 1 h [5] was 30 µM and 37 µg/mL and the cytotoxicity at 1 h, 30 µM [5] was ~13%. For the same molecule, the cytotoxicity at 1 h, 60 µM [5] was ~32% and the “lethality to mammalian cells” value (HeLa cells) was “not lethal”.
